The text below walks through data of article PMC8949771, “Gold(I)-Mediated Rapid Cyclization of Propargylated Peptides via Imine Formation” (Journal of the American Chemical Society, 2022).

The nature of this series: Au(I)-mediated imine macrocyclisation: N-terminal amine adds (Markovnikov) to N-propargyl backbone amide alkyne; JohnPhosAu(MeCN)SbF6 2 equiv, Et4NBr 16 equiv; in situ NaBH4 10 equiv reduction 15 min for quantification. The settings on record: DMF, 8.0 mM, 37.0 °C.

As for `CC[C@H](C)[C@@H](C(N)=O)N1CC(C)N[C@@H](Cc2ccccc2)C(=O)NCC(=O)N[C@@H](CC(C)C)C(=O)N[C@@H](Cc2ccc(O)cc2)C(=O)N[C@@H](CCCNC(=N)N)C(=O)N[C@@H](C)C(=O)NCC1=O` (stereo partly drawn) [H-Phe-Gly-Leu-Tyr-Arg-Ala-Gly-(N-propargyl)Ile-NH2], the ring closure, conversion by HPLC (from C#CCN(C(=O)CNC(=O)[C@H](C)NC(=O)[C@H](CCCNC(=N)N)NC(=O)[C@H](Cc1ccc(O)cc1)NC(=O)[C@H](CC(C)C)NC(=O)CNC(=O)[C@@H](N)Cc1ccccc1)[C@H](C(N)=O)[C@@H](C)CC, 24-membered ring, 1.0 h) was found to be 85%.
Consider `CC(=O)NCSC[C@@H]1NC(=O)[C@H](Cc2ccc(O)cc2)NC(=O)[C@H](CC(C)C)NC(=O)CNC(C)CN(CC(N)=O)C(=O)CNC(=O)[C@H](C)NC1=O` (stereo partly drawn) [H-Gly-Leu-Tyr-Cys(Acm)-Ala-Gly-(N-propargyl)Gly-NH2], for which the ring closure, conversion by HPLC (from C#CCN(CC(N)=O)C(=O)CNC(=O)[C@H](C)NC(=O)[C@H](CSCNC(C)=O)NC(=O)[C@H](Cc1ccc(O)cc1)NC(=O)[C@H](CC(C)C)NC(=O)CN, 21-membered ring, 0.5 h) turned out to be 82%.
Consider `CC[C@H](C)[C@@H]1NC(C)CN(CC(N)=O)C(=O)CNC(=O)[C@H](C)NC(=O)[C@H](CCCNC(=N)N)NC(=O)[C@H](Cc2ccc(O)cc2)NC(=O)[C@H](CC(C)C)NC(=O)CNC1=O` (stereo partly drawn) [H-Ile-Gly-Leu-Tyr-Arg-Ala-Gly-(N-propargyl)Gly-NH2], for which the ring closure, conversion by HPLC (from C#CCN(CC(N)=O)C(=O)CNC(=O)[C@H](C)NC(=O)[C@H](CCCNC(=N)N)NC(=O)[C@H](Cc1ccc(O)cc1)NC(=O)[C@H](CC(C)C)NC(=O)CNC(=O)[C@@H](N)[C@@H](C)CC, 24-membered ring, 1.0 h) turned out to be 76%.
Regarding `CC[C@H](C)[C@@H]1NC(=O)[C@H](C)NC(=O)[C@H](CCCNC(=N)N)NC(=O)[C@H](Cc2ccc(O)cc2)NC(=O)[C@H](CC(C)C)NC(=O)CNC(=O)[C@H](Cc2ccccc2)NC(C)CN(CC(N)=O)C1=O` (stereo partly drawn) [H-Phe-Gly-Leu-Tyr-Arg-Ala-Ile-(N-propargyl)Gly-NH2], the ring closure, conversion by HPLC (from C#CCN(CC(N)=O)C(=O)[C@@H](NC(=O)[C@H](C)NC(=O)[C@H](CCCNC(=N)N)NC(=O)[C@H](Cc1ccc(O)cc1)NC(=O)[C@H](CC(C)C)NC(=O)CNC(=O)[C@@H](N)Cc1ccccc1)[C@@H](C)CC, 24-membered ring, 1.0 h) was determined as 89%.
For `CC(C)C[C@@H]1NC(=O)CNC(=O)[C@H](Cc2ccccc2)NC(C)CN(CC(N)=O)C(=O)CNC(=O)[C@H](C)NC(=O)[C@H](CCC(=O)O)NC(=O)[C@H](Cc2ccc(O)cc2)NC1=O` (stereo partly drawn) [H-Phe-Gly-Leu-Tyr-Glu-Ala-Gly-(N-propargyl)Gly-NH2], for the setting “from C#CCN(CC(N)=O)C(=O)CNC(=O)[C@H](C)NC(=O)[C@H](CCC(=O)O)NC(=O)[C@H](Cc1ccc(O)cc1)NC(=O)[C@H](CC(C)C)NC(=O)CNC(=O)[C@@H](N)Cc1ccccc1, 24-membered ring, 1.0 h”, the ring closure, conversion by HPLC came to 83%.
For the compound `CC(C)C[C@@H]1NC(=O)CNC(=O)[C@H](Cc2ccccc2)NC(C)CN(CC(N)=O)C(=O)CNC(=O)[C@H](C)NC(=O)[C@H](CCCNC(=N)N)NC(=O)[C@H](Cc2ccc(O)cc2)NC1=O` (stereo partly drawn) [H-Phe-Gly-Leu-Tyr-Arg-Ala-Gly-(N-propargyl)Gly-NH2], the ring closure, conversion by HPLC (from C#CCN(CC(N)=O)C(=O)CNC(=O)[C@H](C)NC(=O)[C@H](CCCNC(=N)N)NC(=O)[C@H](Cc1ccc(O)cc1)NC(=O)[C@H](CC(C)C)NC(=O)CNC(=O)[C@@H](N)Cc1ccccc1, 24-membered ring, 0.5 h) is 85%.
In the case of `CC(C)C[C@@H]1NC(=O)CNC(=O)[C@H](Cc2ccccc2)NC(C)CN([C@@H](C)C(N)=O)C(=O)CNC(=O)[C@H](C)NC(=O)[C@H](CCCNC(=N)N)NC(=O)[C@H](Cc2ccc(O)cc2)NC1=O` (stereo partly drawn) [H-Phe-Gly-Leu-Tyr-Arg-Ala-Gly-(N-propargyl)Ala-NH2], where the note is “from C#CCN(C(=O)CNC(=O)[C@H](C)NC(=O)[C@H](CCCNC(=N)N)NC(=O)[C@H](Cc1ccc(O)cc1)NC(=O)[C@H](CC(C)C)NC(=O)CNC(=O)[C@@H](N)Cc1ccccc1)[C@@H](C)C(N)=O, 24-membered ring, 1.0 h”, the ring closure, conversion by HPLC was 90%.
For the compound `CC(C)C[C@@H]1NC(=O)CNC(=O)[C@H](CC(N)=O)NC(C)CN(CC(N)=O)C(=O)CNC(=O)[C@H](C)NC(=O)[C@H](CCCNC(=N)N)NC(=O)[C@H](Cc2ccc(O)cc2)NC1=O` (stereo partly drawn) [H-Asn-Gly-Leu-Tyr-Arg-Ala-Gly-(N-propargyl)Gly-NH2], the ring closure, conversion by HPLC (from C#CCN(CC(N)=O)C(=O)CNC(=O)[C@H](C)NC(=O)[C@H](CCCNC(=N)N)NC(=O)[C@H](Cc1ccc(O)cc1)NC(=O)[C@H](CC(C)C)NC(=O)CNC(=O)[C@@H](N)CC(N)=O, 24-membered ring, 1.0 h) was 76%.
Regarding `CC(C)C[C@@H]1NC(=O)CNC(C)CN(CC(N)=O)C(=O)CNC(=O)[C@H](C)NC(=O)[C@H](CCCNC(=N)N)NC(=O)[C@H](Cc2ccc(O)cc2)NC1=O` (stereo partly drawn) [H-Gly-Leu-Tyr-Arg-Ala-Gly-(N-propargyl)Gly-NH2], the ring closure, conversion by HPLC (from C#CCN(CC(N)=O)C(=O)CNC(=O)[C@H](C)NC(=O)[C@H](CCCNC(=N)N)NC(=O)[C@H](Cc1ccc(O)cc1)NC(=O)[C@H](CC(C)C)NC(=O)CN, 21-membered ring, 0.5 h) came to 78%.
`CC(C)C[C@@H]1NC(=O)CNC(C)CN(CC(N)=O)C(=O)CNC(=O)[C@H](C)NC(=O)[C@H](Cc2ccc(O)cc2)NC1=O` (stereo partly drawn) [H-Gly-Leu-Tyr-Ala-Gly-(N-propargyl)Gly-NH2]: the ring closure, conversion by HPLC (from C#CCN(CC(N)=O)C(=O)CNC(=O)[C@H](C)NC(=O)[C@H](Cc1ccc(O)cc1)NC(=O)[C@H](CC(C)C)NC(=O)CN, 18-membered ring, 0.5 h) came out at 79%.
Consider `CC(C)C[C@@H]1NC(=O)CNC(C)CN(CC(N)=O)C(=O)CNC(=O)CNC(=O)CNC(=O)[C@H](C)NC(=O)[C@H](CCCNC(=N)N)NC(=O)[C@H](Cc2ccc(O)cc2)NC(=O)[C@H](CC(C)C)NC(=O)[C@H](Cc2ccccc2)NC(=O)CNC(=O)CNC(=O)[C@H](C)NC(=O)[C@H](CCCNC(=N)N)NC(=O)[C@H](Cc2ccc(O)cc2)NC(=O)[C@H](CC(C)C)NC1=O` (some centres unmarked), for which the ring closure, conversion by HPLC (from C#CCN(CC(N)=O)C(=O)CNC(=O)CNC(=O)CNC(=O)[C@H](C)NC(=O)[C@H](CCCNC(=N)N)NC(=O)[C@H](Cc1ccc(O)cc1)NC(=O)[C@H](CC(C)C)NC(=O)[C@H](Cc1ccccc1)NC(=O)CNC(=O)CNC(=O)[C@H](C)NC(=O)[C@H](CCCNC(=N)N)NC(=O)[C@H](Cc1ccc(O)cc1)NC(=O)[C@H](CC(C)C)NC(=O)[C@H](CC(C)C)NC(=O)CN, 51-membered ring, 1.0 h) amounted to 94%.
As for `CC(C)C[C@@H]1NC(=O)CNC(=O)[C@H](CC(=O)O)NC(C)CN(CC(N)=O)C(=O)CNC(=O)[C@H](C)NC(=O)[C@H](CCCNC(=N)N)NC(=O)[C@H](Cc2ccc(O)cc2)NC1=O` (stereo partly drawn) [H-Asp-Gly-Leu-Tyr-Arg-Ala-Gly-(N-propargyl)Gly-NH2], the ring closure, conversion by HPLC (from C#CCN(CC(N)=O)C(=O)CNC(=O)[C@H](C)NC(=O)[C@H](CCCNC(=N)N)NC(=O)[C@H](Cc1ccc(O)cc1)NC(=O)[C@H](CC(C)C)NC(=O)CNC(=O)[C@@H](N)CC(=O)O, 24-membered ring, 1.0 h) turned out to be 76%.
In the case of `CC(C)C[C@@H]1NC(=O)CNC(C)CN(CC(N)=O)C(=O)CNC(=O)[C@H](C)NC(=O)[C@H](CS)NC(=O)[C@H](Cc2ccc(O)cc2)NC1=O` (stereo partly drawn) [H-Gly-Leu-Tyr-Cys-Ala-Gly-(N-propargyl)Gly-NH2], where the note is “from C#CCN(CC(N)=O)C(=O)CNC(=O)[C@H](C)NC(=O)[C@H](CS)NC(=O)[C@H](Cc1ccc(O)cc1)NC(=O)[C@H](CC(C)C)NC(=O)CN, 21-membered ring, 0.5 h”, the ring closure, conversion by HPLC amounted to 75%.
Turning to `CC(C)C[C@@H]1NC(=O)CNC(=O)[C@H](Cc2ccccc2)NC(C)CN(CC(N)=O)C(=O)[C@H](C)NC(=O)[C@H](C)NC(=O)[C@H](CCCNC(=N)N)NC(=O)[C@H](Cc2ccc(O)cc2)NC1=O` (stereo partly drawn) [H-Phe-Gly-Leu-Tyr-Arg-Ala-Ala-(N-propargyl)Gly-NH2], the ring closure, conversion by HPLC (from C#CCN(CC(N)=O)C(=O)[C@H](C)NC(=O)[C@H](C)NC(=O)[C@H](CCCNC(=N)N)NC(=O)[C@H](Cc1ccc(O)cc1)NC(=O)[C@H](CC(C)C)NC(=O)CNC(=O)[C@@H](N)Cc1ccccc1, 24-membered ring, 1.0 h) was found to be 89%.
As for `CC(C)C[C@@H]1NC(=O)CNC(=O)[C@H](Cc2c[nH]cn2)NC(C)CN(CC(N)=O)C(=O)CNC(=O)[C@H](C)NC(=O)[C@H](CCCNC(=N)N)NC(=O)[C@H](Cc2ccc(O)cc2)NC1=O` (stereo partly drawn) [H-His-Gly-Leu-Tyr-Arg-Ala-Gly-(N-propargyl)Gly-NH2], the ring closure, conversion by HPLC (from C#CCN(CC(N)=O)C(=O)CNC(=O)[C@H](C)NC(=O)[C@H](CCCNC(=N)N)NC(=O)[C@H](Cc1ccc(O)cc1)NC(=O)[C@H](CC(C)C)NC(=O)CNC(=O)[C@@H](N)Cc1c[nH]cn1, 24-membered ring, 1.0 h) came to 90%.
Regarding `CC(C)C[C@@H]1NC(=O)CNC(=O)[C@H](Cc2c[nH]c3ccccc23)NC(C)CN(CC(N)=O)C(=O)CNC(=O)[C@H](C)NC(=O)[C@H](CCCNC(=N)N)NC(=O)[C@H](Cc2ccc(O)cc2)NC1=O` (stereo partly drawn) [H-Trp-Gly-Leu-Tyr-Arg-Ala-Gly-(N-propargyl)Gly-NH2], the ring closure, conversion by HPLC (from C#CCN(CC(N)=O)C(=O)CNC(=O)[C@H](C)NC(=O)[C@H](CCCNC(=N)N)NC(=O)[C@H](Cc1ccc(O)cc1)NC(=O)[C@H](CC(C)C)NC(=O)CNC(=O)[C@@H](N)Cc1c[nH]c2ccccc12, 24-membered ring, 1.0 h) worked out at 83%.
Consider `CC(C)C[C@@H]1NC(=O)CNC(=O)CNC(=O)CNC(C)CN(CC(N)=O)C(=O)CNC(=O)[C@H](C)NC(=O)[C@H](CCCNC(=N)N)NC(=O)[C@H](Cc2ccc(O)cc2)NC1=O` (stereo partly drawn) [H-Gly-Gly-Gly-Leu-Tyr-Arg-Ala-Gly-(N-propargyl)Gly-NH2], for which the ring closure, conversion by HPLC (from C#CCN(CC(N)=O)C(=O)CNC(=O)[C@H](C)NC(=O)[C@H](CCCNC(=N)N)NC(=O)[C@H](Cc1ccc(O)cc1)NC(=O)[C@H](CC(C)C)NC(=O)CNC(=O)CNC(=O)CN, 27-membered ring, 0.5 h) was 91%.
